Values joined by “and” are separate entries in the source; they are usually repeats but may differ in a detail not shown here. Identical values can stand only once.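 Exposure lasted 48 hours, with cells grown in 96-well plates and compounds tested at five concentrations. The concentration for 50% growth inhibition is given as GI50. The concentration for full growth arrest is given as TGI.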 *1 amine or outer side, *2 acyl side, *3 side chain or, on linkers, in order; H or OH if unused. Where a SMILES comes first, the peptide text is derived from it. [ ]: non-standard residue; d: D form. The star is where a group is joined. X31 = CC(=O)N(C)SCC(N[*:1])C(=O)[*:2]; Cbz = O=C(OCc1ccccc1)*; Bn = c1ccc(C*)cc1; For = O=C*
Assays:
Experiment in all cases: NCI-60 cell line screen, 48 h
[1] = test system: A549 NSCLC
[2] = test system: DU-145 prostate
[3] = test system: HT29 colon
[4] = test system: MDA-MB-231 breast
[5] = test system: MDA-MB-435
[6] = test system: MDA-N
[7] = test system: NCI-H23 lung
[8] = test system: NCI-H460 lung
[9] = test system: OVCAR-4 ovarian
[10] = test system: SF-268 CNS
[11] = test system: SNB-19 CNS
[12] = test system: TK-10 renal
[13] = test system: U251 CNS
[14] = test system: UACC-62 melanoma
[15] = test system: UO-31 renal

Structure (SMILES): N#Cc1c(-c2ccccc2)cc(-c2ccccc2)n(C2OC(CO)C(O)C(O)C2O)c1=S (centres undefined)
- TGI [1]: > 100 µM
- GI50 [2]: 42.2 µM and > 100 µM
- TGI [2]: > 100 µM
- TGI [3]: 56 µM and > 100 µM
- GI50 [4]: 7.15 µM and 23.9 µM
- TGI [4]: 31.1 µM and 83 µM
- TGI [5]: 44 µM and 67.9 µM
- TGI [6]: 60.5 µM and > 100 µM
- TGI [7]: 58.9 µM and 89.7 µM
- TGI [8]: 82.8 µM and > 100 µM
- GI50 [9]: 37.1 µM and > 100 µM
- TGI [9]: > 100 µM
- TGI [10]: > 100 µM
- TGI [11]: > 100 µM
- TGI [12]: > 100 µM
- TGI [13]: 35.9 µM
- GI50 [14]: 15.9 µM and 35.5 µM
- TGI [14]: 33.9 µM and > 100 µM
- TGI [15]: > 100 µM

Structure (SMILES): CCCCCCCCCCCCCCCCCCNC(=O)C(N)Cc1ccc(OCc2ccccc2)cn1 (centres undefined)
- TGI [1]: 42.6 µM
- TGI [2]: 43.4 µM
- TGI [3]: 31.2 µM
- TGI [4]: 38.3 µM
- TGI [5]: 32.5 µM
- TGI [6]: 49.2 µM
- TGI [7]: 31.7 µM
- TGI [8]: 29.9 µM
- TGI [9]: 34 µM
- TGI [10]: 43.4 µM
- TGI [11]: 42.5 µM
- TGI [12]: 28.8 µM
- TGI [13]: 35.4 µM
- TGI [14]: 32.2 µM
- TGI [15]: 32.5 µM

Structure (SMILES): CCOC(CN(C)C(=O)Nc1cccc2ccccc12)OCC
- TGI [1]: > 10 µM
- TGI [2]: > 10 µM
- TGI [3]: > 10 µM
- TGI [4]: > 10 µM
- TGI [5]: > 10 µM
- TGI [6]: > 10 µM
- TGI [7]: > 10 µM
- TGI [8]: > 10 µM
- TGI [9]: > 10 µM
- TGI [10]: > 10 µM
- TGI [11]: > 10 µM
- TGI [12]: > 10 µM
- TGI [13]: > 10 µM
- TGI [14]: > 10 µM
- TGI [15]: > 10 µM

Structure (SMILES): CCc1c2c([nH]c(=S)c1C#N)CCC2
- TGI [1]: > 100 µM
- TGI [2]: > 100 µM
- TGI [3]: > 100 µM
- TGI [4]: > 100 µM
- TGI [5]: > 100 µM
- TGI [6]: > 100 µM
- TGI [7]: > 100 µM
- TGI [8]: > 100 µM
- TGI [9]: > 100 µM
- TGI [10]: > 100 µM
- TGI [11]: > 100 µM
- TGI [12]: > 100 µM
- TGI [13]: > 100 µM
- TGI [14]: > 100 µM
- TGI [15]: > 100 µM

Structure (SMILES): CC(=O)N(C)SCC(NC(=O)C(Cc1ccccc1)NC(=O)OCc1ccccc1)C(=O)NC(Cc1ccccc1)C(=O)NC(Cc1cn(C=O)c2ccccc12)C(=O)NC(CCCCNC(=O)OCc1ccccc1)C(=O)NC(C(=O)NC(CSN(C)C(C)=O)C(=O)NC(C(N)=O)C(C)OCc1ccccc1)C(C)OCc1ccccc1 (centres undefined) (Cbz-F[X31]FW(For)K(Cbz)T(Bn)[X31]T(Bn)-NH2; configuration not given here)
- TGI [1]: > 100 µM
- TGI [2]: > 100 µM
- TGI [3]: > 100 µM
- TGI [4]: 30.5 µM
- TGI [5]: > 100 µM
- TGI [6]: > 100 µM
- TGI [7]: > 100 µM
- TGI [8]: > 100 µM
- TGI [9]: > 100 µM
- TGI [10]: > 100 µM
- TGI [11]: 51.7 µM
- TGI [12]: 57.2 µM
- TGI [13]: > 100 µM
- TGI [14]: > 100 µM
- TGI [15]: > 100 µM

Structure (SMILES): Clc1ccc(NCc2nnc(CCCCCCCCc3nnc(CNc4ccc(Cl)cc4)o3)o2)cc1
- TGI [1]: > 100 µM
- TGI [2]: > 100 µM
- TGI [3]: > 100 µM
- TGI [4]: > 100 µM
- TGI [5]: > 100 µM
- TGI [6]: > 100 µM
- TGI [7]: > 100 µM
- TGI [8]: > 100 µM
- TGI [9]: > 100 µM
- TGI [10]: > 100 µM
- TGI [11]: > 100 µM
- TGI [12]: > 100 µM
- TGI [13]: > 100 µM
- TGI [14]: > 100 µM
- TGI [15]: > 100 µM

Structure (SMILES): CC(=O)C(=C(c1ccccc1)c1ccccc1)c1ccccc1
- TGI [1]: > 100 µM
- TGI [2]: > 100 µM
- TGI [3]: > 100 µM
- TGI [4]: > 100 µM
- TGI [5]: > 100 µM
- TGI [6]: > 100 µM
- TGI [7]: > 100 µM
- TGI [8]: > 100 µM
- TGI [9]: > 100 µM
- TGI [10]: > 100 µM
- TGI [11]: > 100 µM
- TGI [12]: > 100 µM
- TGI [13]: > 100 µM
- TGI [14]: > 100 µM
- TGI [15]: > 100 µM

Structure (SMILES): COc1cc(O)c2c(=O)cc(-c3ccc(O)cc3O)oc2c1CC=C(C)C
- TGI [1]: 29.7 µM
- TGI [2]: > 100 µM
- TGI [3]: 16.3 µM
- TGI [4]: 54.1 µM
- TGI [5]: > 100 µM
- TGI [6]: 61.5 µM
- TGI [7]: 32.5 µM
- TGI [8]: 27.7 µM
- TGI [9]: 28.5 µM
- TGI [10]: 63.4 µM
- TGI [11]: 44.5 µM
- TGI [12]: 74.3 µM
- TGI [13]: 38.2 µM
- TGI [14]: 39.3 µM
- TGI [15]: 33.5 µM

Structure (SMILES): COc1ccc(Nc2nnc(-c3nsc4ccccc34)s2)cc1
- TGI [1]: > 100 µM
- TGI [2]: > 100 µM
- TGI [3]: > 100 µM
- TGI [4]: > 100 µM
- TGI [5]: > 100 µM
- TGI [6]: > 100 µM
- TGI [7]: > 100 µM
- TGI [8]: > 65.9 µM
- TGI [9]: 6.73 µM
- TGI [10]: > 100 µM
- TGI [11]: > 100 µM
- TGI [12]: > 88.5 µM
- TGI [13]: > 100 µM
- TGI [14]: > 100 µM
- TGI [15]: 35 µM

Structure (SMILES): C=CCNC1=C2C[C@@H](C)C[C@@H](OC)[C@H](OC(=O)CCN)[C@H](C)/C=C(\C)[C@@H](OC(N)=O)[C@H](OC)/C=C\C=C(/C)C(=O)NC(=CC1=O)C2=O
- TGI [1]: 18.5 µM
- TGI [2]: 16 µM
- TGI [3]: 18.7 µM
- TGI [4]: 17.7 µM
- TGI [5]: 13.4 µM
- TGI [6]: 11.2 µM
- TGI [7]: 13 µM
- TGI [8]: 15.2 µM
- TGI [9]: 21.3 µM
- TGI [10]: 25.5 µM
- TGI [11]: 20.9 µM
- TGI [12]: 10.5 µM
- TGI [13]: 18.8 µM
- TGI [14]: 12.3 µM
- TGI [15]: 24.2 µM

Structure (SMILES): CC[C@]1(Cc2ccc(OC)c(OC)c2)C=[N+]([O-])O[C@H](OC2CCCC2(c2ccccc2)c2ccccc2)[C@@H]1OC(=O)c1ccccc1 (some centres undefined)
- TGI [1]: > 100 µM
- TGI [2]: > 56.3 µM
- TGI [3]: > 71.1 µM
- TGI [4]: > 100 µM
- TGI [5]: > 46.3 µM
- TGI [6]: > 100 µM
- TGI [7]: > 45.9 µM
- TGI [8]: > 100 µM
- TGI [9]: > 100 µM
- TGI [10]: > 100 µM
- TGI [11]: > 100 µM
- TGI [12]: > 33.4 µM
- TGI [13]: > 100 µM
- TGI [14]: > 38.6 µM
- TGI [15]: > 100 µM

Structure (SMILES): [N-]=[N+]=Nc1ccccc1C(=O)N1C(=O)c2ccccc2C(=O)N(C(=O)c2ccccc2N=[N+]=[N-])c2ccccc21
- TGI [1]: > 100 µM
- TGI [2]: > 100 µM
- TGI [3]: > 100 µM
- TGI [4]: > 100 µM
- TGI [5]: > 100 µM
- TGI [6]: > 100 µM
- TGI [7]: > 100 µM
- TGI [8]: > 100 µM
- TGI [9]: > 100 µM
- TGI [10]: > 100 µM
- TGI [11]: > 100 µM
- TGI [12]: > 100 µM
- TGI [13]: > 100 µM
- TGI [14]: > 100 µM
- TGI [15]: > 100 µM

Structure (SMILES): Cn1c2ccccc2n2c(N=O)c(-c3ccccc3)nc12
- TGI [1]: 57.6 µM
- TGI [2]: > 100 µM
- TGI [3]: > 100 µM
- TGI [4]: > 100 µM
- TGI [5]: > 100 µM
- TGI [6]: > 100 µM
- TGI [7]: > 100 µM
- TGI [8]: 48.3 µM
- TGI [9]: > 100 µM
- TGI [10]: > 100 µM
- TGI [11]: > 100 µM
- TGI [12]: > 100 µM
- TGI [13]: > 100 µM
- TGI [14]: > 100 µM
- TGI [15]: > 100 µM

Structure (SMILES): CC(C)Cn1cnc2c(NCC(C)O)nc3ccccc3c21 (centres undefined)
- TGI [1]: > 100 µM
- TGI [2]: > 100 µM
- TGI [3]: > 100 µM
- TGI [4]: > 100 µM
- TGI [5]: > 100 µM
- TGI [6]: > 100 µM
- TGI [7]: > 100 µM
- TGI [8]: > 100 µM
- TGI [9]: > 100 µM
- TGI [10]: > 100 µM
- TGI [11]: > 100 µM
- TGI [12]: > 100 µM
- TGI [13]: > 100 µM
- TGI [14]: > 100 µM
- TGI [15]: > 100 µM

Structure (SMILES): Cc1ccc2c(c1)[nH]c(=S)n2/C=C1\C(=O)Oc2ccccc2C1=O
- TGI [1]: > 100 µM
- TGI [2]: > 100 µM
- TGI [3]: > 100 µM
- TGI [4]: > 100 µM
- TGI [5]: > 100 µM
- TGI [6]: > 100 µM
- TGI [7]: > 100 µM
- TGI [8]: > 100 µM
- TGI [9]: > 100 µM
- TGI [10]: > 100 µM
- TGI [11]: > 100 µM
- TGI [12]: > 100 µM
- TGI [13]: > 100 µM
- TGI [14]: > 100 µM
- TGI [15]: > 100 µM

Reference: PubChem BioAssay (NCI)
